Consider 48 compounds from BindingDB's records for doi:10.7270/Q28G8J4C (Broad Institute, 2009).

pEC50: −log10 of the molar value. Values joined by “and” are separate entries in the source; they are usually repeats but may differ in a detail not shown here. Equal values may be shown once.

For this test, the target named is T1, POsterior Segregation (Caenorhabditis elegans, UniProt G5EF15).
T1 sequence (G5EF15 whole entry): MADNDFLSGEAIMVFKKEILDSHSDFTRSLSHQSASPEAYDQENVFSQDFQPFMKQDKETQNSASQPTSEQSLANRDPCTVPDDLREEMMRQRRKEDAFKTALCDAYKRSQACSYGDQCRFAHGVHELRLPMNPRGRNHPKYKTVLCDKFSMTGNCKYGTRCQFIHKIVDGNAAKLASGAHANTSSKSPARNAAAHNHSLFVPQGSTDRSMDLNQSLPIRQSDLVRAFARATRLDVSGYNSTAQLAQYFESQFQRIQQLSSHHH
Nature of the test: disruptors of C. elegans POS-1 RNA interaction – biochemical, fluorescence polarization, dose response (AID 1964). For orientation: In fluorescence polarisation assays a small probe gives low polarisation when free and higher when bound to something large.

Take `O=C(NN=Cc1c(O)ccc2ccccc12)Nc1ccccc1`: the negative-log EC50 (pEC50) – broadly, −log10 of the EC50, conventionally taken in molar units – was 3.98.

Take `O=C1NC(=O)N(Cc2ccccc2)C(=O)C1=CNc1ccc(CN2CCOCC2)cc1` [(5E)-1-benzyl-5-[[4-(morpholin-4-ylmethyl)anilino]methylidene]-1,3-diazinane-2,4,6-trione]: the negative logarithm of the EC50 (pEC50) was less than 3.52.

The compound `Cc1cc(N2C(=O)C(=O)C(C(=O)c3cc4ccccc4o3)C2c2ccc([N+](=O)[O-])cc2)no1` (stereo not drawn) [3-(1-benzofuran-2-carbonyl)-4-hydroxy-1-(5-methyl-1,2-oxazol-3-yl)-2-(4-nitrophenyl)-2H-pyrrol-5-one] gave a pEC50 of less than 3.52.

In the case of `COc1ccc(N=Cc2cc3c(cc2O)OC(=N)C(C#N)C3c2ccccc2)cc1` (stereo not drawn) [(6E)-2-amino-6-[(4-methoxyanilino)methylidene]-7-oxo-4-phenyl-4H-1-benzopyran-3-carbonitrile], the negative-log EC50 (pEC50) is less than 3.52.

Consider `C=CCn1c(=O)c(=Cc2ccsc2)s/c1=C(\C#N)C(=O)NCCN1CCOCC1` [2-[3-allyl-4-keto-5-(3-thenylidene)thiazolidin-2-ylidene]-2-cyano-N-(2-morpholinoethyl)acetamide], for which the pEC50 is 5.19.

For `CC1(C)CC(=O)C2Sc3ccccc3N=C2C1` (stereo not drawn) [2,2-Dimethyl-2,3-dihydro-1H,10H-phenothiazin-4-one], the negative logarithm of the EC50 (pEC50) is 4.36.

`O=C(c1ccccc1)c1[nH]n(-c2ccccc2)c2c(O)n(-c3ccccc3Cl)c(=O)c1-2` [SMR000212371]: the negative logarithm of the EC50 (pEC50) was less than 3.52.

As to `COc1ccccc1N1C(=O)C(=Nc2ccccc2O)C(Cl)C1=O` (stereo not drawn) [3-chloranyl-4-[(2-hydroxyphenyl)amino]-1-(2-methoxyphenyl)pyrrole-2,5-dione], the pEC50 was 4.46.

On to `COC(=O)c1ccc(-n2c(C)cc(CN=Nc3nc(C)cc(=O)[nH]3)c2C)cc1` [SMR000364461], for which the pEC50 is less than 3.52.

On to `COc1cccc(CN=Nc2ncnc(N)c2[N+](=O)[O-])c1OC` [(6-amino-5-nitro-pyrimidin-4-yl)-[(2,3-dimethoxybenzylidene)amino]amine], for which the pEC50 was 4.74.

`c1ccc(C2=Nc3nnnn3C(c3cccs3)C2)cc1` (stereo not drawn) [5-Phenyl-7-thiophen-2-yl-4,7-dihydro-tetrazolo[1,5-a]pyrimidine] had a negative logarithm of the EC50 (pEC50) of less than 3.52.

Compound `CC(N=Nc1ccc(Cl)c(C(=O)O)c1)c1ccc[nH]1` (stereo not drawn) [2-chloro-5-[2-[(1Z)-1-pyrrol-2-ylideneethyl]hydrazinyl]benzoic acid] had a pEC50 of less than 3.52.

For the compound `O=C(c1ccccc1)[C@@H]1c2c(c(O)n(-c3ccc(F)cc3)c2O)C2CCCN21` (stereo partly drawn) [MLS000769629], the pEC50 is 4.42.

`Cc1ccc2oc(=O)c(CC(=O)c3cccs3)nc2c1` [(3Z)-3-[2-keto-2-(2-thienyl)ethylidene]-6-methyl-4H-1,4-benzoxazin-2-one] showed a pEC50 of 4.67.

The compound `Cc1[nH]n(C(N)=S)c(=O)c1N=Nc1ccc(S(N)(=O)=O)cc1` [3-methyl-5-oxidanylidene-4-[(4-sulfamoylphenyl)diazenyl]-4H-pyrazole-1-carbothioamide] gave a negative logarithm of the EC50 (pEC50) of 4.71.

Regarding `CCN(CC)c1ccc(NC=C2C(=O)NC(=O)N(Cc3ccccc3)C2=O)cc1` [(5E)-1-benzyl-5-[[4-(diethylamino)anilino]methylene]barbituric acid], the pEC50 was 4.52 and < 3.52.

Consider `CN(C)CCCNC=C1C(=O)NC(=O)N(CCc2ccc(F)cc2)C1=O` [(5E)-5-[[3-(dimethylamino)propylamino]methylene]-1-[2-(4-fluorophenyl)ethyl]barbituric acid], for which the negative logarithm of the EC50 (pEC50) is less than 3.52.

On to `Cc1cc(C(=O)NN=CC2C=C(Cl)C=C([N+](=O)[O-])C2=O)[nH]n1` (stereo not drawn) [SMR000414694], for which the pEC50 is less than 3.52.

Compound `COC(=O)c1[nH]c2cc(OC)c(OC)cc2c1CN=Nc1ccccc1` [methyl (3Z)-5,6-dimethoxy-3-[(2-phenylhydrazinyl)methylidene]indole-2-carboxylate] gave a pEC50 of 4.70.

Consider `CC1(C)CC(=O)C2=C(C1)OC(=N)C(C#N)C2c1cccc(OC(=O)c2ccco2)c1` (stereo not drawn) [2-furancarboxylic acid [3-(2-amino-3-cyano-7,7-dimethyl-5-oxo-6,8-dihydro-4H-1-benzopyran-4-yl)phenyl] ester], for which the pEC50 is less than 3.52.

In the case of `COc1ccc(C2C(C(=O)c3ccco3)C(=O)C(=O)N2c2nnc(C)s2)cc1OC` (stereo not drawn) [2-(3,4-dimethoxyphenyl)-3-(furan-2-carbonyl)-4-hydroxy-1-(5-methyl-1,3,4-thiadiazol-2-yl)-2H-pyrrol-5-one], the pEC50 was less than 3.52.

Compound `Cc1ccc2oc(=O)c(CC(=O)CC(C)C)nc2c1` [(3Z)-3-(2-keto-4-methyl-pentylidene)-6-methyl-4H-1,4-benzoxazin-2-one] showed a negative logarithm of the EC50 (pEC50) of less than 3.52.

The compound `CCCCCCN1C(=O)C(=CNc2ccccc2N2CCOCC2)C(=O)NC1=S` [MLS000333666] had a negative-log EC50 (pEC50) of less than 3.52.

In turn, `CC(=O)Nc1ccc(N=CCC(=O)c2ccc(C)o2)cc1` [MLS000089004] gave a pEC50 of less than 3.52.

Compound `Cn1cc(C=C2C(=O)NC(=O)N(c3ccccc3)C2=O)c2ccccc21` [SMR000559087] gave a negative-log EC50 (pEC50) of 5.28.

`C=CCN1C(=O)NC(=O)C(=CNc2ccc(N(CC)CC)cc2)C1=O` [(5E)-1-allyl-5-[[4-(diethylamino)anilino]methylene]barbituric acid] gave a pEC50 of 3.96.

Turning to `CCOc1cccc(C2C(C(=O)c3ccc(C)o3)C(=O)C(=O)N2c2nccs2)c1` (stereo not drawn) [2-(3-ethoxyphenyl)-3-(5-methylfuran-2-yl)carbonyl-4-oxidanyl-1-(1,3-thiazol-2-yl)-2H-pyrrol-5-one], the pEC50 was 5.85.

For `COc1ccc(C(=O)CC2=NCC3c4ccccc4CCN3C2=O)cc1` (stereo not drawn) [(3Z)-3-[2-(4-methoxyphenyl)-2-oxidanylidene-ethylidene]-2,6,7,11b-tetrahydro-1H-pyrazino[2,1-a]isoquinolin-4-one], the negative logarithm of the EC50 (pEC50) was less than 3.52.

`O=C1c2cccc([N+](=O)[O-])c2C(=O)N1n1c(O)csc1=S` [2-(4-keto-2-thioxo-thiazolidin-3-yl)-4-nitro-isoindoline-1,3-quinone] gave a pEC50 of 4.60.

Compound `Cc1ccc2c(c1)=C(NNc1ccccc1C)C(=O)N=2` gave a negative logarithm of the EC50 (pEC50) of less than 3.52.

For the compound `C[C@@H]1O[C@@H](O[C@@H]2[C@@H](O)[C@H](OCCc3ccc(O)c(O)c3)O[C@H](CO)[C@H]2OC(=O)/C=C/c2ccc(O)c(O)c2)[C@H](O)[C@H](O)[C@H]1O` [((2R,3R,4R,5R,6R)-6-(3,4-dihydroxyphenethoxy)-5-hydroxy-2-(hydroxymethyl)-4-((2S,3R,4R,5R,6S)-3,4,5-trihydroxy-6-methyltetrahydro-2H-pyran-2-yloxy)tetrahydro-2H-pyran-3-yl) 3-(3,4-dihydroxyphenyl)acrylate], the pEC50 is 4.69.

The compound `O=C1NC(=O)N(CCc2ccccc2)C(=O)C1=CNNC(=O)c1ccncc1` [N'-[(E)-[2,4,6-trioxo-1-(2-phenylethyl)-1,3-diazinan-5-ylidene]methyl]-4-pyridinecarbohydrazide] had a pEC50 of less than 3.52.

`O=C1NC(=O)N(Cc2ccccc2Cl)C(=O)C1=CNc1ccc(F)cc1` [(5E)-1-(2-chlorobenzyl)-5-[(4-fluoroanilino)methylene]barbituric acid] showed a pEC50 of less than 3.52.

With `N#CC(C(=O)c1cc2ccccc2o1)c1nc2ccccc2s1` (stereo not drawn) [(2Z)-3-(1-benzofuran-2-yl)-2-(3H-1,3-benzothiazol-2-ylidene)-3-oxidanylidene-propanenitrile], the negative logarithm of the EC50 (pEC50) was less than 3.52.

For `COc1ccc(C2C(C(=O)c3ccco3)C(=O)C(=O)N2c2nnc(C)s2)cc1` (stereo not drawn) [3-(furan-2-carbonyl)-4-hydroxy-2-(4-methoxyphenyl)-1-(5-methyl-1,3,4-thiadiazol-2-yl)-2H-pyrrol-5-one], the pEC50 was 3.96.

The compound `COc1ccc(C2C3=C(CCCC3=O)OC(=N)C2C#N)c(OC)c1OC` (stereo not drawn) [2-Amino-5-oxo-4-(2,3,4-trimethoxy-phenyl)-5,6,7,8-tetrahydro-4H-chromene-3-carbonitrile] had a pEC50 of less than 3.52.

In turn, `CC1(C)CC(=O)C2=C(C1)OC(=N)C(C#N)C2c1ccc(OC(=O)N2CCOCC2)cc1` (stereo not drawn) [4-morpholinecarboxylic acid [4-(2-amino-3-cyano-7,7-dimethyl-5-oxo-6,8-dihydro-4H-1-benzopyran-4-yl)phenyl] ester] had a pEC50 of less than 3.52.

As to `CC(C)c1nnc(N2C(=O)C(=O)C(C(=O)c3cccs3)C2c2ccccc2)s1` (stereo not drawn) [3-hydroxy-1-(5-isopropyl-1,3,4-thiadiazol-2-yl)-5-phenyl-4-(2-thenoyl)-3-pyrrolin-2-one], the pEC50 is 4.47.

For `N#CCC(=N)C(C#N)C#N` [1,1,3-tricyano-2-amino-1-propene], the pEC50 was 4.26.

Regarding `CN1CCC2=C(C#N)C(=N)C(C#N)(C#N)C(c3ccncc3)C2C1` (stereo not drawn) [6-amino-2-methyl-8-(4-pyridyl)-1,3,8,8a-tetrahydroisoquinoline-5,7,7-tricarbonitrile], the pEC50 is 4.28.

`CS(=O)(=O)Nc1nc2n(n1)C(c1ccccc1)CC(c1ccc(Br)cc1)=N2` (stereo not drawn) gave a negative-log EC50 (pEC50) of less than 3.52.

In turn, `N#CC1C(=N)OC2=C(C(=O)CCC2)C1c1cc2c(cc1Cl)OCO2` (stereo not drawn) [MLS001183950] had a pEC50 of less than 3.52.

`COc1cc(CN=Nc2ccc([N+](=O)[O-])cc2)ccc1OCC(=O)Nc1ccc(C)c(C)c1` [MLS000537060] had a negative-log EC50 (pEC50) of less than 3.52.

In turn, `O=C1C([N+](=O)[O-])=CC(Cl)=CC1/C=N/NC(=O)C(O)(c1ccccc1)c1ccccc1` (stereo not drawn) [N''''-[(E)-(3-chloro-5-nitro-6-oxocyclohexa-2,4-dien-1-ylidene)methyl]-2-hydroxy-2,2-diphenylacetohydrazide] had a pEC50 of less than 3.52.

Consider `Cc1cc(=O)[nH]c(N=NCc2ccc(O)c(O)c2)n1` [MLS001194906], for which the pEC50 is 4.00.

`Oc1c(Br)cc(Br)c(C=Nn2c(-c3ccccc3)n[nH]c2=S)c1Br` [2,4,6-Tribromo-3-[(3-mercapto-5-phenyl-[1,2,4]triazol-4-ylimino)-methyl]-phenol] showed a pEC50 of 5.07.

`COc1cc2c(cc1C1C3=C(CC(C)(C)CC3=O)OC(=N)C1C#N)OCO2` (stereo not drawn) [MLS001208406] had a pEC50 of less than 3.52.

In the case of `Cc1c(C(=O)NN=Cc2ccco2)[nH][nH]c1=O`, the pEC50 was less than 3.52.
